Measurements reported in patent US11572369B2, “Bicyclic pyridine compositions and methods of using the same for cancer therapy” (UNIVERSITY OF SOUTH CAROLINA, priority 2019, dated 2023).

Experiments:
Test in all cases: KINOMEscan
Type in all cases: binding
Conditions in all cases: 2000 nM
[1] = target: T1, CSNK1E (Homo sapiens, UniProt P49674)
T1 construct: DNA label (qPCR read-out); purchased DiscoverX (assay service)

[2] = target: T2, RPS6KA4(Kin.Dom.2-C-terminal) (Homo sapiens, UniProt O75676)
T2 construct: Kin.Dom.2; DNA label (qPCR read-out); purchased DiscoveRx (KINOMEscan ScanMAX panel)

[3] = target: T3, TYK2(JH1domain-catalytic) (Homo sapiens, UniProt P29597)
T3 construct: JH1domain; DNA label (for qPCR read-out); purchased DiscoveRx (KINOMEscan scanMAX panel)

[4] = target: T4, BTK (Homo sapiens, UniProt Q06187)
T4 construct: DNA label (for qPCR read-out); purchased KINOMEscan scanMAX panel (DiscoveRx)

[5] = target: T5, ASK2 (Homo sapiens, UniProt O95382)
T5 construct: DNA label (qPCR read-out); purchased KINOMEscan scanMAX panel (DiscoveRx)

[6] = target: T6, RIOK2 (Homo sapiens, UniProt Q9BVS4)
T6 construct: DNA label (qPCR read-out); purchased DiscoverX (assay service)

[7] = target: T7, IRAK1 (Homo sapiens, UniProt P51617)
T7 construct: DNA label (qPCR read-out); purchased KINOMEscan (DiscoveRx) ScanMAX panel

[8] = target: T8, CSF1R-autoinhibited (Homo sapiens, UniProt P07333)
T8 construct: DNA label (for qPCR read-out); purchased DiscoveRx (KINOMEscan scanMAX service)

[9] = target: T9, LOK (Homo sapiens, UniProt O94804)
T9 construct: purchased KINOMEscan (DiscoveRx) panel service

[10] = target: T10, YANK1 (Homo sapiens, UniProt Q8WU08)
T10 construct: purchased KINOMEscan (DiscoveRx) panel service

[11] = target: T11, ICK (Homo sapiens, UniProt Q9UPZ9)
T11 construct: DNA label (qPCR read-out); purchased KINOMEscan (DiscoveRx) ScanMAX panel
T11 sequence (Q9UPZ9 whole entry): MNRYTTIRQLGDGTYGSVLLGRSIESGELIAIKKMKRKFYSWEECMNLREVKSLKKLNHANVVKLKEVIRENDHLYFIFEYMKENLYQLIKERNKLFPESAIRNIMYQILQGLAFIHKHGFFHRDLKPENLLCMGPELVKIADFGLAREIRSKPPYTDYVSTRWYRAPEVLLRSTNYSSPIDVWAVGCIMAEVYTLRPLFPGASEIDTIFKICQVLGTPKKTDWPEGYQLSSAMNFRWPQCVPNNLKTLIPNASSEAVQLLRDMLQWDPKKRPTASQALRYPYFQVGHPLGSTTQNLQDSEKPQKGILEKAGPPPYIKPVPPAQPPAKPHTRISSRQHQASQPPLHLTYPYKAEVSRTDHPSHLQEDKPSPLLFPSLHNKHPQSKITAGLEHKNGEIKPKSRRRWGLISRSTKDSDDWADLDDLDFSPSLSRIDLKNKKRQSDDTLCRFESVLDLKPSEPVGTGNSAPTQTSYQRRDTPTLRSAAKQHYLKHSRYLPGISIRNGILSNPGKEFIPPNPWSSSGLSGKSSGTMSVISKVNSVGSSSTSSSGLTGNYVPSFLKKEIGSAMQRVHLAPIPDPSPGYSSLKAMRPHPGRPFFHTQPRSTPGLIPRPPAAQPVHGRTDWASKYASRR

[12] = target: T12, ERBB2 (Homo sapiens, UniProt P04626)
T12 construct: DNA label (qPCR read-out); purchased DiscoveRx (KINOMEscan ScanMAX panel)

[13] = target: T13, PHKG2 (Homo sapiens, UniProt P15735)
T13 construct: DNA label (for qPCR read-out); purchased DiscoveRx (KINOMEscan scanMAX service)

[14] = target: T14, ULK1 (Homo sapiens, UniProt O75385)
T14 construct: DNA label (for qPCR read-out); purchased DiscoveRx (KINOMEscan scanMAX panel)
T14 sequence (O75385 whole entry): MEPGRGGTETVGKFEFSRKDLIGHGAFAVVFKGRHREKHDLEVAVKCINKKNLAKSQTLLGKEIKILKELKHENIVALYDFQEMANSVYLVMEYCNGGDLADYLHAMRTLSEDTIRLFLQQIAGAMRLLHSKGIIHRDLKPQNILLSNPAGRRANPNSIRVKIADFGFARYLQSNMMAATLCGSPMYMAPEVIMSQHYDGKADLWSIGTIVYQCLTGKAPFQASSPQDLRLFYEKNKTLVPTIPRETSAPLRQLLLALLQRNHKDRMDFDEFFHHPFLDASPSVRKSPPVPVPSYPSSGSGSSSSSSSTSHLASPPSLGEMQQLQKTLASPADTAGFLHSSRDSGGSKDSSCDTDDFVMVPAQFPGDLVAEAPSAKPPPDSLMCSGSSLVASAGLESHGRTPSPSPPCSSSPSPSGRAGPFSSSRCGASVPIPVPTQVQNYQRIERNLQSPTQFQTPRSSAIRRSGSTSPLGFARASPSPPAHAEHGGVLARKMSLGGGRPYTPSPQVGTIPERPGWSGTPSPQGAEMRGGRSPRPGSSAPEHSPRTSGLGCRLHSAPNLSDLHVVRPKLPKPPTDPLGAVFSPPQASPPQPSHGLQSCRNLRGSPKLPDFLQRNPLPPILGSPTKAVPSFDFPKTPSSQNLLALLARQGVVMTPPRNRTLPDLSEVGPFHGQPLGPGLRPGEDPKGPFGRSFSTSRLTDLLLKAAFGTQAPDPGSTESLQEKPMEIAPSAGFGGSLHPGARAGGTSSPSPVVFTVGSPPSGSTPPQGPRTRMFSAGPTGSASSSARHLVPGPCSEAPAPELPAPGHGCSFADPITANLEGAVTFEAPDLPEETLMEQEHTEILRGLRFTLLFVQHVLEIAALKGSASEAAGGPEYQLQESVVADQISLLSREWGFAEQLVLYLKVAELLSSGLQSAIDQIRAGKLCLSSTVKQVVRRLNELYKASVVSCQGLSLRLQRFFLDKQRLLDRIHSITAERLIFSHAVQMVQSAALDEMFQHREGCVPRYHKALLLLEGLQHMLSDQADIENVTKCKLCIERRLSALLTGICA

[15] = target: T15, NDR1 (Homo sapiens, UniProt Q15208)
T15 construct: DNA label (for qPCR read-out); purchased KINOMEscan scanMAX panel (DiscoveRx)

[16] = target: T16, TIE1 (Homo sapiens, UniProt P35590)
T16 construct: DNA label (qPCR read-out); purchased KINOMEscan (DiscoveRx) ScanMAX panel

[17] = target: T17, ADCK4 (Homo sapiens, UniProt Q96D53)
T17 construct: purchased DiscoveRx (KINOMEscan scanMAX panel, service)

[18] = target: T18, WNK1 (Homo sapiens, UniProt Q9H4A3)
T18 construct: purchased KINOMEscan (DiscoveRx) panel service

[19] = target: T19, S6K1 (Homo sapiens, UniProt P23443)
T19 construct: purchased DiscoveRx (KINOMEscan scanMAX panel)

[20] = target: MAP4K4 (Homo sapiens, UniProt O95819)
[21] = target: T20, PIK3CA(Q546K) (Homo sapiens, UniProt P42336, Q546K)
T20 construct: DNA label; purchased DiscoveRx (KINOMEscan scanMAX panel)

[22] = target: T21, AXL (Homo sapiens, UniProt P30530)
T21 construct: DNA label (qPCR read-out); purchased KINOMEscan scanMAX panel (DiscoveRx)

[23] = target: MAPKAPK2 (Homo sapiens, UniProt P49137)
[24] = target: T22, TESK1 (Homo sapiens, UniProt Q15569)
T22 construct: DNA label (for qPCR read-out); purchased DiscoveRx (KINOMEscan scanMAX panel, contract assay)

[25] = target: T23, CSK (Homo sapiens, UniProt P41240)
T23 construct: DNA label; purchased DiscoveRx (KINOMEscan scanMAX panel)
T23 sequence (P41240 whole entry): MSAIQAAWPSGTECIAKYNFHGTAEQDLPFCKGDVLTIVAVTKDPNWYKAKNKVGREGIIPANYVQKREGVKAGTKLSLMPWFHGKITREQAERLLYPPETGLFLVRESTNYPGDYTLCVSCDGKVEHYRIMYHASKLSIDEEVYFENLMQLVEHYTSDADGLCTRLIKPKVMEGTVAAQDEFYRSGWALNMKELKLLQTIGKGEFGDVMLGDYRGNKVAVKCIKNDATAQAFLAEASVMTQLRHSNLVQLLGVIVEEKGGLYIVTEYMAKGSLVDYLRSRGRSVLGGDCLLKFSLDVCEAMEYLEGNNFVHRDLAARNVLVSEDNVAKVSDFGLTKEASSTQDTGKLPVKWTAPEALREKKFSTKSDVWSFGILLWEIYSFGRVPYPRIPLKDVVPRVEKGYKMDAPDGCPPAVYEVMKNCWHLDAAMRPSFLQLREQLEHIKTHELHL

[26] = target: T24, ABL2 (Homo sapiens, UniProt P42684)
T24 construct: purchased DiscoveRx (KINOMEscan scanMAX panel, service)
T24 sequence (P42684 whole entry): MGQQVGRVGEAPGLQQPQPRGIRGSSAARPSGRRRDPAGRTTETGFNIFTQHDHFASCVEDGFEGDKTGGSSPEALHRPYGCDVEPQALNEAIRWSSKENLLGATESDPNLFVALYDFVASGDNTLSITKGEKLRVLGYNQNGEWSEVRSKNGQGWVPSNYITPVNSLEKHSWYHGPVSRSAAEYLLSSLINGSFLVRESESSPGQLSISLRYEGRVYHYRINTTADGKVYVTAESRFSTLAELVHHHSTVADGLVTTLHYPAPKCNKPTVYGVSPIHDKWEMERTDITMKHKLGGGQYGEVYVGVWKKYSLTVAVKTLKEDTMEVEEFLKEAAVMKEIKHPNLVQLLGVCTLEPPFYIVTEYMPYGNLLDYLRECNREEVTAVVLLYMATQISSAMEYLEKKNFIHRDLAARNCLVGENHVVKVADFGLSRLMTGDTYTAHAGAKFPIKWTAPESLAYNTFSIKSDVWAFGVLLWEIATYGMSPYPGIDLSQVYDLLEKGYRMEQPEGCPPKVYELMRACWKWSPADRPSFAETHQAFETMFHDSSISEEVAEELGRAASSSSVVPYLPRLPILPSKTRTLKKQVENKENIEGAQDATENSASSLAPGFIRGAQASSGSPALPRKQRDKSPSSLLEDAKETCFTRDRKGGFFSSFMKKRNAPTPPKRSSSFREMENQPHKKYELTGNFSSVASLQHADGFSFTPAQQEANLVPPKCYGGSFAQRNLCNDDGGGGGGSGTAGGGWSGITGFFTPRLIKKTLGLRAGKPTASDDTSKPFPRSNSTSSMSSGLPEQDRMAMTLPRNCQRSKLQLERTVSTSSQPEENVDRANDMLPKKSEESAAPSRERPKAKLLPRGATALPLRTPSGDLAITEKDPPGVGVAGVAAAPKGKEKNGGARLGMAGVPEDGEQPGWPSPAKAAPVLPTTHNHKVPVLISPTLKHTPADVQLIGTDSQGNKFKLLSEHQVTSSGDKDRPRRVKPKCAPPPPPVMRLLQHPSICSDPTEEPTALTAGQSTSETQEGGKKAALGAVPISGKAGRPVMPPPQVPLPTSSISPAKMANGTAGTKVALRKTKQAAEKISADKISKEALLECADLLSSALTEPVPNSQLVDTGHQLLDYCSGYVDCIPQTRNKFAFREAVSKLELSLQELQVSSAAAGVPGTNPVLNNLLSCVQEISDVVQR

[27] = target: T25, FAK (Homo sapiens, UniProt Q05397)
T25 construct: DNA label (qPCR read-out); purchased DiscoveRx (KINOMEscan ScanMAX panel)

[28] = target: T26, ACVR1 (Homo sapiens, UniProt Q04771)
T26 construct: purchased DiscoveRx (KINOMEscan scanMAX panel, service)

[29] = target: T27, ERK2 (Homo sapiens, UniProt P28482)
T27 construct: DNA label (qPCR read-out); purchased DiscoveRx (KINOMEscan ScanMAX panel)
T27 sequence (P28482 whole entry): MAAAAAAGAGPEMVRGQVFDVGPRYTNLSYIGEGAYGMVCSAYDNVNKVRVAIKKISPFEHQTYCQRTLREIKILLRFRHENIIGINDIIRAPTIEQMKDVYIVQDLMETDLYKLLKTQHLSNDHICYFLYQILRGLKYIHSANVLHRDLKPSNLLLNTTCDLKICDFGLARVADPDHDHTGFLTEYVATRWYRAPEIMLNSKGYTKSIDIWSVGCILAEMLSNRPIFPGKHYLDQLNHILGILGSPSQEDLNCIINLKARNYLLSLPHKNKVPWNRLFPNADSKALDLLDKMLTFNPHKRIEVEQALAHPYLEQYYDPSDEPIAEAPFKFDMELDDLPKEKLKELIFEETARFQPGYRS

[30] = target: T28, ACVR2B (Homo sapiens, UniProt Q13705)
T28 construct: purchased DiscoveRx (KINOMEscan scanMAX panel, service)

[31] = target: T29, WNK4 (Homo sapiens, UniProt Q96J92)
T29 construct: purchased KINOMEscan (DiscoveRx) panel service
T29 sequence (Q96J92 whole entry): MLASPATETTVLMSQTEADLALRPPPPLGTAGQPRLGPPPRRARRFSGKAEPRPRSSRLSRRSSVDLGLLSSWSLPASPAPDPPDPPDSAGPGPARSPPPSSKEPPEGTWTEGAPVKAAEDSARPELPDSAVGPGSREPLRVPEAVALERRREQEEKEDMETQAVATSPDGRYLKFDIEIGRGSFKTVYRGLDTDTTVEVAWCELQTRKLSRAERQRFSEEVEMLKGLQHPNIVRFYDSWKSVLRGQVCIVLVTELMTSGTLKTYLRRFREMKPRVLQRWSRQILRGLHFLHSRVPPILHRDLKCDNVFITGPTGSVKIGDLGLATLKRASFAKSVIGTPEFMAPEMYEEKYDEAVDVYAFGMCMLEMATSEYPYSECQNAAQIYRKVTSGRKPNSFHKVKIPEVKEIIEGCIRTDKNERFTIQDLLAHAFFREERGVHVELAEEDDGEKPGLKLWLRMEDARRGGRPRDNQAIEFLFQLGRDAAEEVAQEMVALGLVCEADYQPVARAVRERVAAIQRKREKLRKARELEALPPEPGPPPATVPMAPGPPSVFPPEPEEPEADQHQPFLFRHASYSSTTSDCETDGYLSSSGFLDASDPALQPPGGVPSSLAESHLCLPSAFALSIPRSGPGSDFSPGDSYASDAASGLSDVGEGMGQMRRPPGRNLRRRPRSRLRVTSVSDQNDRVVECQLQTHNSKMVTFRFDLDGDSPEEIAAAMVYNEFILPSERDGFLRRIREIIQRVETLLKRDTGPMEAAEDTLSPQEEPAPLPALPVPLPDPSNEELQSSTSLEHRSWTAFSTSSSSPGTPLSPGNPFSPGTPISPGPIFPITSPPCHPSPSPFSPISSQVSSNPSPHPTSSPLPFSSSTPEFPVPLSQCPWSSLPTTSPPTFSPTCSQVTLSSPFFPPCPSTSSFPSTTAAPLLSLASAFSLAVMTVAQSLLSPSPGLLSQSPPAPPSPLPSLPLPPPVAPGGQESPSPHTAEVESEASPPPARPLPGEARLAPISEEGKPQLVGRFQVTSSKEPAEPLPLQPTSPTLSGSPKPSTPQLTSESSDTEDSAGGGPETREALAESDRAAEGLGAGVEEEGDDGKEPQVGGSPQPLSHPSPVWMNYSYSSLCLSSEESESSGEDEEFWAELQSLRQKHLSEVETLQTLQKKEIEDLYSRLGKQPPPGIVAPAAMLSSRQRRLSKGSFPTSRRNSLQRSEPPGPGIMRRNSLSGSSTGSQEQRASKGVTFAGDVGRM

[32] = target: T30, FGFR3 (Homo sapiens, UniProt P22607)
T30 construct: purchased DiscoveRx (KINOMEscan scanMAX panel)

[33] = target: T31, TLK2 (Homo sapiens, UniProt Q86UE8)
T31 construct: DNA label (qPCR read-out); purchased KINOMEscan (DiscoveRx) ScanMAX panel

[34] = target: T32, PAK2 (Homo sapiens, UniProt Q13177)
T32 construct: purchased DiscoverX (KINOMEscan service)

[35] = target: T33, PRKCD (Homo sapiens, UniProt Q05655)
T33 construct: purchased DiscoveRx (KINOMEscan scanMAX panel)

[36] = target: T34, SBK1 (Homo sapiens, UniProt Q52WX2)
T34 construct: purchased DiscoveRx (KINOMEscan scanMAX panel)

## CN(C)C(=O)c1ccc(N2CCCN(c3ccnc4sc(C(N)=O)c(N)c34)CC2)cc1 [15u, 3-amino-4-(4-(4-(dimethylcarbamoyl)phenyl)-1,4-diazepan-1-yl)thieno[2,3-b]pyridine-2-carboxamide]
[1]
  % Ctrl: 25 % Ctrl
[2]
  % Ctrl: 100 % Ctrl
[3]
  % Ctrl: 95 % Ctrl
[4]
  % Ctrl: 81 % Ctrl
[5]
  % Ctrl: 90 % Ctrl
[6]
  % Ctrl: 35 % Ctrl
[7]
  % Ctrl: 94 % Ctrl
[8]
  % Ctrl: 88 % Ctrl
[9]
  % Ctrl: 84 % Ctrl
[10]
  % Ctrl: 89 % Ctrl
[11]
  % Ctrl: 84 % Ctrl
[12]
  % Ctrl: 100 % Ctrl
[13]
  % Ctrl: 86 % Ctrl
[14]
  % Ctrl: 96 % Ctrl
[15]
  % Ctrl: 100 % Ctrl
[16]
  % Ctrl: 90 % Ctrl
[17]
  % Ctrl: 95 % Ctrl
[18]
  % Ctrl: 100 % Ctrl
[19]
  % Ctrl: 95 % Ctrl
[20]
  % Ctrl: 100 % Ctrl
[21]
  % Ctrl: 66 % Ctrl
[22]
  % Ctrl: 99 % Ctrl
[23]
  % Ctrl: 91 % Ctrl
[24]
  % Ctrl: 83 % Ctrl
[25]
  % Ctrl: 86 % Ctrl
[26]
  % Ctrl: 85 % Ctrl
[27]
  % Ctrl: 100 % Ctrl
[28]
  % Ctrl: 100 % Ctrl
[29]
  % Ctrl: 78 % Ctrl
[30]
  % Ctrl: 100 % Ctrl
[31]
  % Ctrl: 60 % Ctrl
[32]
  % Ctrl: 98 % Ctrl
[33]
  % Ctrl: 100 % Ctrl
[34]
  % Ctrl: 91 % Ctrl
[35]
  % Ctrl: 100 % Ctrl
[36]
  % Ctrl: 100 % Ctrl

## [2H]C([2H])([2H])N(C(=O)c1ccc(N2CCCN(c3ccnc4sc(C(N)=O)c(N)c34)CC2)cc1)C([2H])([2H])[2H] [15u_D6, 3-amino-4-(4-(4-(bis(methyl-d3)carbamoyl)phenyl)-1,4-diazepan-1-yl)thieno[2,3-b]pyridine-2-carboxamide]
[1]
  % Ctrl: 12 % Ctrl
[2]
  % Ctrl: 74 % Ctrl
[3]
  % Ctrl: 82 % Ctrl
[4]
  % Ctrl: 77 % Ctrl
[5]
  % Ctrl: 88 % Ctrl
[6]
  % Ctrl: 3.9 % Ctrl
[7]
  % Ctrl: 84 % Ctrl
[8]
  % Ctrl: 83 % Ctrl
[9]
  % Ctrl: 69 % Ctrl
[10]
  % Ctrl: 97 % Ctrl
[11]
  % Ctrl: 66 % Ctrl
[12]
  % Ctrl: 89 % Ctrl
[13]
  % Ctrl: 83 % Ctrl
[14]
  % Ctrl: 72 % Ctrl
[15]
  % Ctrl: 80 % Ctrl
[16]
  % Ctrl: 96 % Ctrl
[17]
  % Ctrl: 83 % Ctrl
[18]
  % Ctrl: 93 % Ctrl
[19]
  % Ctrl: 89 % Ctrl
[20]
  % Ctrl: 93 % Ctrl
[21]
  % Ctrl: 72 % Ctrl
[22]
  % Ctrl: 96 % Ctrl
[23]
  % Ctrl: 99 % Ctrl
[24]
  % Ctrl: 100 % Ctrl
[25]
  % Ctrl: 92 % Ctrl
[26]
  % Ctrl: 91 % Ctrl
[27]
  % Ctrl: 96 % Ctrl
[28]
  % Ctrl: 100 % Ctrl
[29]
  % Ctrl: 92 % Ctrl
[30]
  % Ctrl: 86 % Ctrl
[31]
  % Ctrl: 98 % Ctrl
[32]
  % Ctrl: 99 % Ctrl
[33]
  % Ctrl: 97 % Ctrl
[34]
  % Ctrl: 94 % Ctrl
[35]
  % Ctrl: 92 % Ctrl
[36]
  % Ctrl: 83 % Ctrl
